Experimental findings from patent US20090209601A1, “USE OF RXR AGONISTS FOR THE TREATMENT OF OSTEOARTHRITIS” (Wyeth, priority 2008, published 2009) are described below.

One assay has as its system RXRα. In words: RXRα expression by qRT-PCR in cytokine-treated primary articular chondrocytes. Format: cell-based. To be noted: primary human articular chondrocytes (n=4 donors), monolayer culture, 18 hours; IL-1β 1 ng/ml, TNFα 10 ng/ml; vs vehicle/untreated. As for the experimental part: (§1) For isolation of RNA from chondrocytes in monolayer culture, pellets were digested with collagenase (2.5 mg/ml, Sigma, St Louis, Mo.) and RNA was subsequently prepared using TRIzol reagent (Invitrogen) according to the manufacturer's protocol. Primary chondrocytes in monolayer culture were lysed by direct addition of TRIzol reagent followed by standard TRIzol RNA purification methodologies.
(§2) Chondrocytes were isolated from fresh human articular cartilage using a standard method previously described (Heinlein et al., Endocr. Rev. 25:276-308 (2004)). Cells were cultured in 10% FBS containing DMEM/F12 growth media for 2-3 days in 12 well culture plates at a density of 1-2×10^6 cells/well. Chondrocyte cultures were stimulated with cytokines (TNFα: 10 ng/ml; IL-1β: 1 ng/ml) for 18 hours.
(§3) cDNA was prepared from purified RNA using the High-Capacity cDNA Archive Kit (Applied Biosystems, catalog #4322171) according to the manufacturer's instructions. Quantitative real-time PCR was performed using either human TaqMan® Gene Expression assays or TaqMan® Low Density Arrays (TLDA) from Applied Biosystems. Thermal cycling was performed using either an ABI Prism 7900 Sequence Detection System (for TLDA) or an ABI Prism 7700 Sequence Detection System (for individual TaqMan® Gene Expression Assays). […]
(In general: Quantitative PCR measures a nucleic acid by following its amplification.)

The subject of the next assay is RXRγ. In words: RXRγ expression by qRT-PCR in cytokine-treated primary articular chondrocytes. The assay is classed as cell-based. The following applies: primary human articular chondrocytes (n=4 donors), monolayer culture, 18 hours; IL-1β 1 ng/ml, TNFα 10 ng/ml; vs vehicle/untreated. As for the experimental part: as §1, §2, §3

Consider “IL-1: inflammatory cytokine purchased from R&D Systems, used to stimulate chondrocyte cultures”, for which the RXRα expression entry with RXRα is listed as “significantly reduced”. The RXRγ expression result in the assay with RXRγ was “not”.
